The values that follow come from ChEMBL document CHEMBL3243996, “[1-Deaminopenicillamine,4-threonine]oxytocin, a potent inhibitor of oxytocin” (J Med Chem, 1978).

Each structure is given as a SMILES string. Calls of active or inactive are those of the source. No cut-off for these calls is given here. Starred links: 1 amine or outer side, 2 acyl side, 3 side chain; linkers in the order of their positions; H or OH if unused. Positions of bridges follow the written chain, without caps; N, C: chain ends. Residues, ends and D or L forms follow the SMILES beside them. X2 = O=C(CC1(S[*:2])CCCCC1)[*:1]; X1 = CC(C)(CC(=O)[*:1])S[*:2]

Assay [1] concerns the target T1, Oxytocin receptor (Rattus norvegicus, UniProt P70536).
T1 sequence (P70536 whole entry): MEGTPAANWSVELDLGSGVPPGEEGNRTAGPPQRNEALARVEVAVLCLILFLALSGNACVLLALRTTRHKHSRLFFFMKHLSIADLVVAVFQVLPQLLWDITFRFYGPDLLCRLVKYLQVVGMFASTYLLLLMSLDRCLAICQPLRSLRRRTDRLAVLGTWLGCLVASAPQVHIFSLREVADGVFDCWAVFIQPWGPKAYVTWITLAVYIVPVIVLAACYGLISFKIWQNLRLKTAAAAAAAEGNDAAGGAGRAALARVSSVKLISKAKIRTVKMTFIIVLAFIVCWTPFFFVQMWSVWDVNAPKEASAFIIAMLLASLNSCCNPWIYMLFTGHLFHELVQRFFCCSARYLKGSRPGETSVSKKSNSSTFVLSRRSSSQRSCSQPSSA
The assay can be described thus: (§1) Antagonist activity at oxytocin receptor in rat uterus by average effective molar concentration based analysis. It counts as tissue-based. The note with it: read-out: pA2 (converted).

In assay [2] the target is T2, Oxytocin receptor (Rattus norvegicus) (UniProt P70536).
T2 sequence (whole entry): T1 sequence (P70536 whole entry)
The assay can be described thus: (§2) Antagonist activity at oxytocin receptor in rat uterus by Schild's method in absence of Mg2+. It counts as tissue-based.

The target of assay [3] is T1, Oxytocin receptor. The assay is described as §2. The note with it: read-out: pA2 (converted). It counts as tissue-based.
Assay [4] in a line: (§3) Antagonist activity at rat vasopressin receptor.
The target in assay [5] is T2, Oxytocin receptor (Rattus norvegicus). Described as §1. It counts as tissue-based.
Assay [6] is filed under the species Rattus norvegicus. The assay is described as §3.
For assay [7], the species on record is Rattus norvegicus. The assay can be described thus: Agonist activity at rat vasopressin receptor.
Assay [8] deals with T2, Oxytocin receptor (Rattus norvegicus). The assay is described as follows: Agonist activity at oxytocin receptor in rat uterus. It counts as tissue-based.

On to `CC[C@H](C)[C@@H]1NC(=O)[C@H](Cc2ccc(O)cc2)NC(=O)[C@@H](N)C(C)(C)SSC[C@@H](C(=O)N2CCC[C@H]2C(=O)N[C@@H](CC(C)C)C(=O)NCC(N)=O)NC(=O)[C@H](CC(N)=O)NC(=O)[C@H](CCC(N)=O)NC1=O`, for which the Kb on Oxytocin receptor [1] is 138 nM.

In the case of `CC[C@H](C)[C@@H]1NC(=O)[C@H](Cc2ccc(O)cc2)NC(=O)CC(C)(C)SSC[C@@H](C(=O)N2CCC[C@H]2C(=O)N[C@@H](CC(C)C)C(=O)NCC(N)=O)NC(=O)[C@H](CC(N)=O)NC(=O)[C@H](CCC(N)=O)NC1=O` (YIQNCPLG-NH2; linker N-5 via X1), the A2 in assay [2] was determined as 9.1 ×10⁻⁸ M; in assay [5], 11.6 ×10⁻⁸ M. Besides, the Kb on Oxytocin receptor [3] was 72.4 nM; on Oxytocin receptor [1] it was 115 nM. The same compound registered a pA2 in assay [4] of 6.27.

`CC[C@H](C)[C@@H]1NC(=O)[C@H](Cc2ccc(O)cc2)NC(=O)CC2(CCCCC2)SSC[C@@H](C(=O)N2CCC[C@H]2C(=O)N[C@@H](CC(C)C)C(=O)NCC(N)=O)NC(=O)[C@H](CC(N)=O)NC(=O)[C@H](CCC(N)=O)NC1=O` (YIQNCPLG-NH2; linker N-5 via X2): the Kb on Oxytocin receptor [3] and on Oxytocin receptor [1] was 37.2 nM each time. The result in the assay listed under Rattus norvegicus [6] was Active. In addition, the A2 in assay [5] amounted to 3.7 ×10⁻⁸ M.

On to `CC[C@H](C)[C@@H]1NC(=O)[C@H](Cc2ccc(O)cc2)NC(=O)CC(C)(C)SSC[C@@H](C(=O)N2CCC[C@H]2C(=O)N[C@@H](CC(C)C)C(=O)NCC(N)=O)NC(=O)[C@H](CC(N)=O)NC(=O)[C@H]([C@@H](C)O)NC1=O` (stereo in doubt; 1a) [listing 1 of 2 here], for which the Kb at Oxytocin receptor [3] is 34.7 nM. Further, the pA2 in assay [4] was found to be 6.67.

Turning to `CC[C@H](C)[C@@H]1NC(=O)[C@H](Cc2ccc(O)cc2)NC(=O)CC(C)(C)SSC[C@@H](C(=O)N2CCC[C@H]2C(=O)N[C@@H](CC(C)C)C(=O)NCC(N)=O)NC(=O)[C@H](CC(N)=O)NC(=O)[C@H]([C@@H](C)O)NC1=O` (stereo in doubt; 1a) [listing 2 of 2 here], in assay [2], the A2 was determined as 4 ×10⁻⁸ M. Also, the outcome (in the assay filed under Rattus norvegicus [7]; in assay [8]) was inactive.

On to `CC[C@H](C)[C@@H]1NC(=O)[C@H](Cc2ccc(O)cc2)NC(=O)CC(C)(C)SSC[C@@H](C(=O)N2CCC[C@H]2C(=O)N[C@@H](CC(C)C)C(=O)NCC(N)=O)NC(=O)[C@H](CC(N)=O)NC(=O)[C@H]([C@@H](C)O)NC1=O` (stereo in doubt; 1b) [listing 1 of 2 here], for which, on Oxytocin receptor [3], the Kb was 25.7 nM.

In assay [2], `CC[C@H](C)[C@@H]1NC(=O)[C@H](Cc2ccc(O)cc2)NC(=O)CC(C)(C)SSC[C@@H](C(=O)N2CCC[C@H]2C(=O)N[C@@H](CC(C)C)C(=O)NCC(N)=O)NC(=O)[C@H](CC(N)=O)NC(=O)[C@H]([C@@H](C)O)NC1=O` (stereo in doubt; 1b) [listing 2 of 2 here] registered an A2 of 4.3 ×10⁻⁸ M.
